Test results from ChEMBL document CHEMBL1201862, “PubChem BioAssay data set” (2004).
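Five compound concentrations were applied to cells in 96-well plates for 48 hours; endpoints were derived by simple linear interpolation of the resulting dose-response curve. Abbreviation: GI50, concentration required for 50% inhibition of growth.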 Calls of active or inactive are those of the source. Rule as the data show it: active = GI50 up to about 1.1 µM and inactive = higher.

How the values were obtained:
Test in all cases: NCI anticancer screen, dose series, 48 h
DMS-273 = system: DMS-273
BT-549 = system: BT-549
RXF 631 = system: RXF 631
KM-20L2 = system: KM-20L2
DMS-114 = system: DMS-114
XF498 = system: XF498
HOP-18 = system: HOP-18
SNB-78 = system: SNB-78
DLD-1 = system: DLD-1

Compound | GI50 (DMS-273) | GI50 (BT-549) | GI50 (RXF 631) | GI50 (KM-20L2) | GI50 (DMS-114) | GI50 (XF498) | GI50 (HOP-18) | GI50 (SNB-78) | GI50 (DLD-1)
O=[N+]([O-])c1ccc(C2=Nn3c(nnc3-c3ccc(Cl)cc3)SC2)o1 | 14 µM (inactive) | 11.4 µM (inactive) | 10.9 µM (inactive) | 5.94 µM (inactive) | 4.11 µM (inactive) | 14.3 µM (inactive) | 19.2 µM (inactive) | 15.8 µM (inactive) | 2.06 µM (inactive)
COc1cc2c(c(O)c1C)C(=O)CC(c1ccccc1)O2 (stereo not drawn) |  |  | 41.4 µM (inactive) | 15.1 µM (inactive) | 50.7 µM (inactive) |  | 61 µM (inactive) | 55.7 µM (inactive) | 55.2 µM (inactive)
COc1cc([C@@H]2c3cc4c(cc3[C@@H](NC(=O)c3cccc(C#N)c3)C3COC(=O)[C@@H]32)OCO4)cc(OC)c1O (stereo partly drawn) | 0.0847 µM (active) |  | 1.56 µM (inactive) | 1.63 µM (inactive) |  |  | > 100 µM (inactive) | 9.33 µM (inactive) | 2 µM (inactive)
[O-][Cl+3]([O-])([O-])[O-].c1ccc(-c2[o+]c(-c3ccccc3)c(-c3ccccc3)c(-c3ccccc3)c2-c2ccccc2)cc1 | > 100 µM (inactive) |  | > 100 µM (inactive) | > 100 µM (inactive) |  |  | > 100 µM (inactive) | > 100 µM (inactive) | > 100 µM (inactive)
CC1(C)CC(/C=C2/OC(=O)c3ccccc32)=C(C#N)C(=O)O1 | > 100 µM (inactive) |  | > 100 µM (inactive) | > 100 µM (inactive) |  | > 100 µM (inactive) |  | > 100 µM (inactive) | > 100 µM (inactive)
CC1=Nc2ccccc2SC(c2c(Cl)cccc2Cl)C1 (stereo not drawn) | 0.792 µM (active) |  |  | 1.59 µM (inactive) | 1.52 µM (inactive) | 1.8 µM (inactive) | 3.51 µM (inactive) | 3.31 µM (inactive) | 0.331 µM (active)
CC(=O)Oc1cc(OC(C)=O)c(OC(C)=O)c2c1CC1C(=O)C3(CCc4ccccc43)C(=O)C1C2 (stereo not drawn) | 18.1 µM (inactive) |  |  | 22.8 µM (inactive) | 11.7 µM (inactive) | 14.7 µM (inactive) | 28.5 µM (inactive) | 23.1 µM (inactive) | 14.2 µM (inactive)
CCCCCCCCCCCCCC(=O)OCC(C[As](=O)(O)O)OC(=O)CCCCCCCCCCCCC (stereo not drawn) | > 100 µM (inactive) |  | > 100 µM (inactive) | > 100 µM (inactive) | 74 µM (inactive) | > 100 µM (inactive) | > 100 µM (inactive) | > 100 µM (inactive) | > 100 µM (inactive)
N#CCCN(c1ccc(/C=N/c2ccc(C(=O)O)cc2)cc1)S(=O)(=O)c1ccccc1 | > 100 µM (inactive) |  |  | > 100 µM (inactive) | > 100 µM (inactive) | > 100 µM (inactive) | > 100 µM (inactive) | > 100 µM (inactive) | > 100 µM (inactive)
CN(C)C(=S)/N=c1\ssc(=S)n1Cc1ccccc1 | 0.25 µM (active) | > 100 µM (inactive) |  | 0.195 µM (active) | 0.201 µM (active) | 0.21 µM (active) | 2.22 µM (inactive) | 0.8 µM (active) | 0.348 µM (active)
Cc1ccc(CC(C)N)cc1 (stereo not drawn) | > 100 µM (inactive) |  | > 100 µM (inactive) | > 100 µM (inactive) | > 100 µM (inactive) |  | > 100 µM (inactive) | > 100 µM (inactive) | > 100 µM (inactive)
CC(C)(c1ccc(Oc2ccc(C#N)c(C#N)c2)cc1)c1ccc(Oc2ccc(C#N)c(C#N)c2)cc1 |  |  | > 10 µM (inactive) | > 10 µM (inactive) | > 10 µM (inactive) | > 10 µM (inactive) | > 10 µM (inactive) | > 10 µM (inactive) | > 10 µM (inactive)
O=C1C=C(Nc2cc(Cl)ccc2Cl)c2ccccc2C1=O | 21.3 µM (inactive) |  | > 100 µM (inactive) | > 100 µM (inactive) | 25.5 µM (inactive) |  | 22.6 µM (inactive) | > 100 µM (inactive) | 45.3 µM (inactive)
C=CC/N=C1\N=C(C)C(C(=O)OCC)S1 (stereo not drawn) | > 100 µM (inactive) |  | > 100 µM (inactive) | > 100 µM (inactive) | > 100 µM (inactive) | > 100 µM (inactive) | > 100 µM (inactive) | > 100 µM (inactive) | > 100 µM (inactive)
C[Si]1(C)C(c2ccccc2)=CC2C(c3ccccc3)(c3ccccc3)OC21c1ccccc1 (stereo not drawn) | > 100 µM (inactive) |  | > 100 µM (inactive) | 92.9 µM (inactive) | 97.9 µM (inactive) | > 100 µM (inactive) | > 100 µM (inactive) |  | > 100 µM (inactive)
CC/C(CC(=O)CCC(=O)Nc1ccccc1[N+](=O)[O-])=N/NC(=O)C[n+]1ccccc1 | > 100 µM (inactive) |  | > 100 µM (inactive) | > 100 µM (inactive) |  |  | > 100 µM (inactive) | > 100 µM (inactive) | 
CN(Cc1ccccc1)C1(N(C)Cc2ccccc2)CC1 | > 100 µM (inactive) |  |  | > 100 µM (inactive) | > 100 µM (inactive) | > 100 µM (inactive) | > 100 µM (inactive) | > 100 µM (inactive) | > 100 µM (inactive)
COC12C=CC(CC1)c1c(O)ccc(O)c12 (stereo not drawn) | 46 µM (inactive) |  |  | 82.8 µM (inactive) | 47.1 µM (inactive) | 19.7 µM (inactive) | > 100 µM (inactive) | 49.2 µM (inactive) | 50.4 µM (inactive)
COc1ccc2nc3ccccc3c(NCCCCCCN(CCCl)CCCl)c2c1 | 0.0328 µM (active) | 0.323 µM (active) | 0.104 µM (active) | 0.0776 µM (active) | 0.155 µM (active) | 0.136 µM (active) |  | 0.223 µM (active) | 0.109 µM (active)
